# Experimental data reported in patent US20260209777A1, “TARGETING GLYCOSYLPHOSPHATIDYLINOSITOL (GPI) PATHWAY PROTEINS TO TREAT OVARIAN CANCER” (UNIVERSITY OF MASSACHUSETTS, priority 2023, published 2026).
# How the values were obtained:
# [1] = test system: CD24 cell surface expression in OVCAR8 cells; assay: CD24 flow cytometry analysis in OVCAR8 cells; type: cell-based, human; settings: for CD24 cell surface expression (MFI): OVCAR8, 3 days, bestatin 10 or 20 μM, tosedostat 5 or 10 μM, ARM1 1 or 2 μM, vs DMSO
# Method: Flow Cytometry Analysis: For cell surface protein staining, 1×10^5-1×10^6 cells were first incubated with Fc receptor blocking solution, Human TruStain FcXTM (BioLegend, Cat #422301) for 10 minutes at room temperature. Cells were washed once in FACS buffer (1×PBS, 1.0% bovine serum albumin (BSA) (Sigma) and 0.2% sodium azide (Sigma), and then incubated with antibodies (given below) for 30 minutes at 4° C. in the dark. Cells were also stained with 7-AAD (Biolegend, Cat #420404) for dead cell exclusion, and flow cytometry analysis was performed using a Bio-Rad ZE5 Cell Analyzer. Following antibodies used in this study (all antibodies were used at 1:50 dilution unless otherwise noted): APC anti-human CD24 (BioLegend, Cat #311118, clone ML5), PE anti-human CD24 (eBioscience, Cat #12-0247-42, clone SN3), APC anti-human CD47 (BioLegend, Cat #323124, clone CC2C6), APC anti-human § 2-microglobulin (BioLegend, Cat #395711, clone […]), PE anti-human HLA-A2 (MHC-class I) (BioLegend, Cat #343305, clone BB7.2), APC anti-human CD11b (BioLegend, Cat #982604, clone ICRF44), APC anti-mouse F4/80 antibody (BioLegend, Cat #123116, clone BM8), APC-streptavidin (Thermo Fisher Scientific, Cat #SA1005, 1:100 dilution), PE anti-Calreticulin (Invitrogen, Catalog #MA5-15382, 1:200 dilution). For intracellular staining, cells were fixed with 1% paraformaldehyde for 5 min and permeabilized using the True-Nuclear Transcription Factor Buffer Set (BioLegend, Cat #424401) before the addition of the antibody. Small Molecule Inhibitor and Drug Treatments: OVCAR8 or SKOV3 cells were treated for 3 days with bestatin (Ubenimex) (SelleckChem, Cat #S1591) at 5, 10 or 20 μM (as indicated in the figure legends), Tosedostat (Medchem Express, Cat #HY-14807) at 5 μM or 10 μM (as indicated in the figure legends) or ARM-1 (Medchem Express, Cat #HY-W027340) at 1, or 2 μM (as indicated in the figure legends). Inhibitors were replenished every 24 hours. DMSO (Sigma Aldrich, Cat #D8418) was used as a vehicle. OVCAR8 cells were treated with Docetaxel (SelleckChem, Cat #S1148) at 100 nM or Carboplatin (SelleckChem, Cat #S1215 at 100 nM or Doxorubicin (SelleckChem, Cat #E2516) at 50 nM for 12 hours.
# CD24 on normal B cells = assay: CD24 flow cytometry analysis in primary B cells; type: cell-based, human; settings: 20 μM bestatin or 10 μM tosedostat vs DMSO (FIG. 9A)
# Method: Flow Cytometry Analysis: For cell surface protein staining, 1×10^5-1×10^6 cells were first incubated with Fc receptor blocking solution, Human TruStain FcX™ (BioLegend, Cat #422301) for 10 minutes at room temperature. Cells were washed once in FACS buffer (1×PBS, 1.0% bovine serum albumin (BSA) (Sigma) and 0.2% sodium azide (Sigma), and then incubated with antibodies (given below) for 30 minutes at 4° C. in the dark. Cells were also stained with 7-AAD (Biolegend, Cat #420404) for dead cell exclusion, and flow cytometry analysis was performed using a Bio-Rad ZE5 Cell Analyzer. Following antibodies used in this study (all antibodies were used at 1:50 dilution unless otherwise noted): APC anti-human CD24 (BioLegend, Cat #311118, clone ML5), PE anti-human CD24 (eBioscience, Cat #12-0247-42, clone SN3), APC anti-human CD47 (BioLegend, Cat #323124, clone CC2C6), APC anti-human § 2-microglobulin (BioLegend, Cat #395711, clone A17082A), PE anti-human HLA-A2 (MHC-class I) (BioLegend, Cat #343305, clone BB7.2), APC anti-human CD11b (BioLegend, Cat #982604, clone ICRF44), APC anti-mouse F4/80 antibody (BioLegend, Cat #123116, clone BM8), APC-streptavidin (Thermo Fisher Scientific, Cat #SA1005, 1:100 dilution), PE anti-Calreticulin (Invitrogen, Catalog #MA5-15382, 1:200 dilution). […]
smiles,measurement,setting,value
CC(C)C[C@H](NC(=O)[C@@H](O)[C@H](N)Cc1ccccc1)C(=O)O [bestatin],total CD24 levels following permeabilization of cells,"[1]; OVCAR8, 20 μM bestatin, permeabilized (FIG. 6E)",no significant effect
same,CD24 cell surface expression (MFI),[1],reduced CD24 cell surface expression in a dose-dependent manner
same,ability to decrease CD24 cell surface expression after knockdown of PEPT1 or PEPT2,"[1]; OVCAR8 expressing PEPT1 or PEPT2 shRNA, 20 μM bestatin (FIG. 7C)",abrogated
same,CD24 levels on B cells (MFI),CD24 on normal B cells,not diminished
CC(C)C[C@@H](C(=O)N[C@H](C(=O)OC1CCCC1)c1ccccc1)[C@H](O)C(=O)NO [tosedostat],CD24 cell surface expression (MFI),[1],reduced
same,CD24 levels on B cells (MFI),CD24 on normal B cells,not diminished
